Assay results from patent publication US12097190B2, “Therapeutic use of levorotatory β-lactams in hematopoiesis, immuno-oncology therapy, and regulation of lipoprotein and apolipoprotein levels” (Alpha-1 Biologics, LLC, priority 2017, dated 2024).

What was measured:
[1] = test system: HIV permissive (plus) clone 10; assay: Adherence assay on coverslips, U937 plus clone 10; format: cell-based, human
Description: (§1) To coverslips prepared with chemoattractants as described above, 10^6 cells in 90 μl HBSS were mixed to uniformity, and incubated for 30 min in humidified 5% CO2 at 37° C. without dehydration. To detect interacting effects of stimulants, cells were delivered in an 80 μl volume to coverslips previously prepared with 10 μl of one stimulant, mixed to uniformity, and incubated for 15 min at 37° C. Subsequently, an additional stimulant was delivered in a 10 μl volume to each coverslip, mixed with pre-incubated cells to uniformity, and incubated for 30-60 min at 37° C. […] Slides were examined by epi-illumination UV microscopy on a Zeiss Axioskop Means and standard deviations were determined by counting adherent cells in at least three fields/coverslip.
(§2) Means and standard deviations represent the difference between stimulated and unstimulated adherence. […] Adherence was optimized for each chemoattractant and adherence induced by each chemoattractant was enumerated in more than three separate experiments.

[2] = test system: HIV non-permissive (minus) clone 17; assay: Adherence assay on coverslips, U937 minus clone 17; format: cell-based, human
Description: as §1, §2

With Ser-Phe-Leu-Leu-Arg-Asn [SFLLRN] the stimulation of adherence [1] was “Neither subclone was influenced” and the stimulation of adherence [2] was “Neither subclone was influenced”.
